Measured values reported in PMC9395446, “First-in-human phase 1/1b study to evaluate sitravatinib in patients with advanced solid tumors” (Investigational New Drugs, 2022).

Experiment: Safety in phase 1/1b study (DLTs, TRAEs, TEAEs; CTCAE v4.03)
Type: in vivo, human
Source text: Safety assessments included evaluation of DLTs, AEs, physical examinations, vital sign measurements, electrocardiogram recordings and laboratory tests.
A DLT was defined as a grade ≥ 4 hematologic abnormality lasting ≥ 4 days; grade 3 thrombocytopenia with clinically significant bleeding; febrile neutropenia; clinically significant grade ≥ 3 non-hematologic AEs not related to underlying malignancy; intolerable grade 2 AEs; or toxicity resulting in an inability to deliver 80% of the dose during the first treatment cycle.
The safety population included all patients who received ≥ 1 dose of sitravatinib. […] The PK evaluable population included all patients with sufficient concentration-time data for PK parameter evaluation. The modified intent-to-treat (mITT) population included all phase 1b patients who received ≥ 1 dose of study drug.

Compound: COCCNCc1ccc(-c2cc3nccc(Oc4ccc(NC(=O)C5(C(=O)Nc6ccc(F)cc6)CC5)cc4F)c3s2)nc1 [sitravatinib, Sitravatinib]
- Hyponatremia TEAE, grade ≥3 (120 mg phase 1b): 3 (4.8) n (%)
- Hypophosphatemia TEAE, any grade (120 mg phase 1b): 3 (4.8) n (%)
- Hypophosphatemia TEAE, grade ≥3 (120 mg phase 1b): 1 (1.6) n (%)
- Hypothyroidism TEAE, any grade (120 mg phase 1b): 19 (30.6) n (%)
- Hypothyroidism TRAE, any grade (120 mg phase 1b): 14 (22.6) n (%)
- Hypothyroidism TRAE, grade ≥3 (120 mg phase 1b): 0 n (%)
- Infections and infestations TEAE, any grade (120 mg phase 1b): 18 (29.0) n (%)
- Infections and infestations TEAE, grade ≥3 (120 mg phase 1b): 7 (11.3) n (%)
- Injury, poisoning, procedural complications TEAE, any grade (120 mg phase 1b): 11 (17.7) n (%)
- Injury, poisoning, procedural complications TEAE, grade ≥3 (120 mg phase 1b): 0 n (%)
- Investigations TEAE, any grade (120 mg phase 1b): 34 (54.8) n (%)
- Investigations TEAE, grade ≥3 (120 mg phase 1b): 7 (11.3) n (%)
- Lipase increased TEAE, any grade (120 mg phase 1b): 8 (12.9) n (%)
- Lipase increased TEAE, grade ≥3 (120 mg phase 1b): 3 (4.8) n (%)
- Metabolism and nutrition disorders TEAE, any grade (120 mg phase 1b): 38 (61.3) n (%)
- Metabolism and nutrition disorders TEAE, grade ≥3 (120 mg phase 1b): 11 (17.7) n (%)
- Musculoskeletal and connective tissue disorders TEAE, any grade (120 mg phase 1b): 28 (45.2) n (%)
- Musculoskeletal and connective tissue disorders TEAE, grade ≥3 (120 mg phase 1b): 2 (3.2) n (%)
- Nausea TEAE, any grade (120 mg phase 1b): 19 (30.6) n (%)
- Nausea TEAE, grade ≥3 (120 mg phase 1b): 0 n (%)
- Nausea TRAE, any grade (120 mg phase 1b): 14 (22.6) n (%)
- Nausea TRAE, grade ≥3 (120 mg phase 1b): 0 n (%)
- Neoplasms benign, malignant, unspecified TEAE, any grade (120 mg phase 1b): 11 (17.7) n (%)
- Neoplasms benign, malignant, unspecified TEAE, grade ≥3 (120 mg phase 1b): 8 (12.9) n (%)
- Nervous system disorders TEAE, any grade (120 mg phase 1b): 28 (45.2) n (%)
- Nervous system disorders TEAE, grade ≥3 (120 mg phase 1b): 3 (4.8) n (%)
- PPE syndrome TEAE, any grade (120 mg phase 1b): 14 (22.6) n (%)
- PPE syndrome TEAE, grade ≥3 (120 mg phase 1b): 6 (9.7) n (%)
- PPE syndrome TRAE, any grade (120 mg phase 1b): 13 (21.0) n (%)
- PPE syndrome TRAE, grade ≥3 (120 mg phase 1b): 6 (9.7) n (%)
- Pain in extremity TEAE, any grade (120 mg phase 1b): 4 (6.5) n (%)
- Pain in extremity TEAE, grade ≥3 (120 mg phase 1b): 0 n (%)
- Proteinuria TEAE, any grade (120 mg phase 1b): 13 (21.0) n (%)
- Proteinuria TEAE, grade ≥3 (120 mg phase 1b): 2 (3.2) n (%)
- Proteinuria TRAE, any grade (120 mg phase 1b): 11 (17.7) n (%)
- Proteinuria TRAE, grade ≥3 (120 mg phase 1b): 2 (3.2) n (%)
- Psychiatric disorders TEAE, any grade (120 mg phase 1b): 7 (11.3) n (%)
- Psychiatric disorders TEAE, grade ≥3 (120 mg phase 1b): 2 (3.2) n (%)
- Rash TEAE, any grade (120 mg phase 1b): 9 (14.5) n (%)
- Rash TEAE, grade ≥3 (120 mg phase 1b): 2 (3.2) n (%)
- Rash TRAE, any grade (120 mg phase 1b): 6 (9.7) n (%)
- Rash TRAE, grade ≥3 (120 mg phase 1b): 2 (3.2) n (%)
- Renal and urinary disorders TEAE, any grade (120 mg phase 1b): 19 (30.6) n (%)
- Renal and urinary disorders TEAE, grade ≥3 (120 mg phase 1b): 5 (8.1) n (%)
- Respiratory, thoracic and mediastinal disorders TEAE, any grade (120 mg phase 1b): 34 (54.8) n (%)
- Respiratory, thoracic and mediastinal disorders TEAE, grade ≥3 (120 mg phase 1b): 3 (4.8) n (%)
- Serious TEAE (120 mg phase 1b): 21 (33.9) n (%)
- Serious TRAE (120 mg phase 1b): 5 (8.1) n (%)
- Skin and subcutaneous tissue disorders TEAE, any grade (120 mg phase 1b): 33 (53.2) n (%)
- Skin and subcutaneous tissue disorders TEAE, grade ≥3 (120 mg phase 1b): 8 (12.9) n (%)
- Stomatitis TEAE, any grade (120 mg phase 1b): 11 (17.7) n (%)
- Stomatitis TEAE, grade ≥3 (120 mg phase 1b): 1 (1.6) n (%)
- Stomatitis TRAE, any grade (120 mg phase 1b): 11 (17.7) n (%)
- Stomatitis TRAE, grade ≥3 (120 mg phase 1b): 1 (1.6) n (%)
- TEAE grade ≥3 (120 mg phase 1b): 45 (72.6) n (%)
- TEAE leading to death (120 mg phase 1b): 8 (12.9) n (%)
- TEAE leading to discontinuation (120 mg phase 1b): 12 (19.4) n (%)
- TEAE leading to treatment modification (120 mg phase 1b): 46 (74.2) n (%)
- TRAE grade ≥3 (120 mg phase 1b): 32 (51.6) n (%)
- TRAE leading to death (120 mg phase 1b): 0 n (%)
- TRAE leading to discontinuation (120 mg phase 1b): 7 (11.3) n (%)
- TRAE leading to treatment modification (120 mg phase 1b): 42 (67.7) n (%)
- UTI TEAE, any grade (120 mg phase 1b): 6 (9.7) n (%)
- UTI TEAE, grade ≥3 (120 mg phase 1b): 1 (1.6) n (%)
- Vascular disorders TEAE, any grade (120 mg phase 1b): 32 (51.6) n (%)
- Vascular disorders TEAE, grade ≥3 (120 mg phase 1b): 12 (19.4) 12 (19.4) n (%)
- Vomiting TEAE, any grade (120 mg phase 1b): 12 (19.4) n (%)
- Vomiting TEAE, grade ≥3 (120 mg phase 1b): 0 n (%)
- Vomiting TRAE, any grade (120 mg phase 1b): 9 (14.5) n (%)
- Vomiting TRAE, grade ≥3 (120 mg phase 1b): 0 n (%)
- Weight decreased TEAE, any grade (120 mg phase 1b): 10 (16.1) n (%)
- Weight decreased TEAE, grade ≥3 (120 mg phase 1b): 0 n (%)
- Weight decreased TRAE, any grade (120 mg phase 1b): 7 (11.3) n (%)
- Weight decreased TRAE, grade ≥3 (120 mg phase 1b): 0 n (%)
- Patients discontinued due to TRAEs (150 mg): 17.2%
- Patients with grade ≥ 3 TRAEs (150 mg arm): 61.6%
- Patients with serious TRAEs (150 mg arm): 22.2%
- ALT increased TEAE, any grade (150 mg phase 1b): 25 (25.3) n (%)
- ALT increased TEAE, grade ≥3 (150 mg phase 1b): 3 (3.0) n (%)
